Assay results published in US9920010B2, “CXCR7 receptor modulators” (IDORSIA PHARMACEUTICALS LTD, priority 2013, dated 2018).

Biological target: T1, CXCR7 (Homo sapiens, UniProt P25106)
T1 construct: host or cells: CHO-K1 (PathHunter CHO-K1 CXCR7 b-arrestin cell line, stably transfected)
Test: PathHunter CHO-K1 CXCR7 b-arrestin recruitment assay (CXCR7 agonistic activity)
Assay type: cell-based
Settings: PathHunter CHO-K1 CXCR7 b-arrestin cell line
Protocol: The CXCl12 receptor and CXCR7 agonistic activities of the compounds of formula (I) are determined in accordance with the following experimental method.
The assay is using the PathHunter™ CHO-K1 CXCR7 b-arrestin cell line from DiscoverX. The system is based on the Enzyme Fragment Complementation Technology. Two complementing fragments of the b-galactosidase enzyme are expressed within stably transfected cells. The larger portion of b-gal, termed EA for Enzyme Acceptor, is fused to the C-terminus of b-arrestin 2. The smaller fragment, termed ProLink™ tag, is fused to CXCR7 at the C-terminus. Upon activation, b-arrestin is recruited which forces the interaction of ProLink and EA, allowing complementation of the two fragments of b-gal and the formation of a functional enzyme which is capable of hydrolysing the substrate and generating a chemiluminescent signal.
CHO-K1 CXCR7 b-arrestin cells are detached from culture dishes with a cell dissociation buffer (Invitrogen, #13151-014) and collected in growing medium (F12 HAMS 90% (v/v)/FCS 10% (v/v), Penicillin/streptomycin 1% (v/v)). 5000 cells per well (in 20 μl) are seeded in a 384 well plate (white-walled, clear bottom; BD Falcon #353274). The plate is incubated at 37° C./5% CO2 for 24 hours. Medium is then replaced by 20 μl OPTIMEM (Invitrogen #31985) for 3 to 4 hours. Test compounds are dissolved at 10 mM in DMSO and serially diluted in DMSO to 200× of the final concentration for dose response curves. Compounds are then diluted 1:33.3 in HBSS1×. 5 μl/well of HBSS1×/20 mM HEPES/0.2% BSA are added to the assay plate followed by addition of 5 μl/well of diluted compounds. CXCL12 (Peprotech #300-28A) may be used as a reference agonist. The plate is incubated for 90 minutes at 37° C. 12 μl of detection reagent (Path Hunter Detection Kit, DiscoveRx, #93-0001) is transferred to the assay plate and to the plate is incubated for 1 hour at room temperature. Luminescent signal is read in a microplate reader (FLUOstar Optima, bmg). The calculated EC50 values may fluctuate depending on the daily cellular assay performance. Fluctuations of this kind are known to those skilled in the art. Average EC50 values from several measurements are given as geometric mean values.

T1 sequence (P25106 whole entry): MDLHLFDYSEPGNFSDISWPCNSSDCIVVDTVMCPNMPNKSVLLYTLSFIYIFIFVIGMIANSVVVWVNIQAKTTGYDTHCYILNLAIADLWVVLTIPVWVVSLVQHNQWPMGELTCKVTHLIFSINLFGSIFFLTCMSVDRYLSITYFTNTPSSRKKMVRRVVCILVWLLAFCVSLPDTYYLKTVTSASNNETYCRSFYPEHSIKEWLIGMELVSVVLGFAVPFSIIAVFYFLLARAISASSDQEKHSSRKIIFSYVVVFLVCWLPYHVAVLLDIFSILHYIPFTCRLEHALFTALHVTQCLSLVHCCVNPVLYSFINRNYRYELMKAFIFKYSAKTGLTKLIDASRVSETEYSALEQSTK
T1 sequence (P32121 whole entry partner): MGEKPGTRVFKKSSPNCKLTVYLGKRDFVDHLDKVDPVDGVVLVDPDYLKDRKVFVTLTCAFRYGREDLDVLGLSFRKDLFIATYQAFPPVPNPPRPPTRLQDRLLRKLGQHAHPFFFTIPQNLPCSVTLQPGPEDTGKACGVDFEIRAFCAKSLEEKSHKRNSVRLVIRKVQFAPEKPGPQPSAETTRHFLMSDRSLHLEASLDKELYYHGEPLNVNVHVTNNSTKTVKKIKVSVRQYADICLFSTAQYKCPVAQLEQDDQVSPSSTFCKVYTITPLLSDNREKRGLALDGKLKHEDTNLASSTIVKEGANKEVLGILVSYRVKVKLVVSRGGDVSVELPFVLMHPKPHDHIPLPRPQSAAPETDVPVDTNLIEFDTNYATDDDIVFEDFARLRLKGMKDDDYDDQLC

EC50 [nM] | Compound
47 | COCCN1CCc2c(CCC(=O)N(CCN(C)C)Cc3ncccc3C(F)(F)F)cccc2C1 [Example 336, N-(2-Dimethylamino-ethyl)-3-[2-(2-methoxy-ethyl)-1,2,3,4-tetrahydro-isoquinolin-5-yl]-N-(3-trifluoromethyl-pyridin-2-ylmethyl)-propionamide]
277 | COCCN1CCc2c(CCC(=O)N(CCN3CCC(F)(F)CC3)Cc3ncccc3C(F)(F)F)cccc2C1 [Example 340, N-[2-(4,4-Difluoro-piperidin-1-yl)-ethyl]-3-[2-(2-methoxy-ethyl)-1,2,3,4-tetrahydro-isoquinolin-5-yl]-N-(3-trifluoromethyl-pyridin-2-ylmethyl)-propionamide]
3 | CN(C)CCN(Cc1ccccc1C(F)(F)F)C(=O)CN(C)c1cccc2c1CCN(CC1CC1)C2 [Example 87, 2-[(2-Cyclopropylmethyl-1,2,3,4-tetrahydro-isoquinolin-5-yl)-methyl-amino]-N-(2-dimethylamino-ethyl)-N-(2-trifluoromethyl-benzyl)-acetamide]
73 | COCCN1CCc2c(CCC(=O)N(CCN(C)C)Cc3ncccc3Cl)cccc2C1 [Example 346, N-(3-Chloro-pyridin-2-ylmethyl)-N-(2-dimethylamino-ethyl)-3-[2-(2-methoxy-ethyl)-1,2,3,4-tetrahydro-isoquinolin-5-yl]-propionamide]
6 | CC1c2cccc(NCC(=O)N(CCN(C)C)Cc3ccccc3C(F)(F)F)c2CCN1CC1CC1 (single isomer, unassigned) [Example 211b, (R)- or (S)-2-((2-(Cyclopropylmethyl)-1-methyl-1,2,3,4-tetrahydroisoquinolin-5-yl)amino)-N-(2-(dimethylamino)ethyl)-N-(2-(trifluoromethyl)benzyl)acetamide]
147 | CCN1CCc2cccc(NCC(=O)N(CCNC)Cc3ccccc3)c2C1 [compound 443]
326 | CNCCN(Cc1ccccc1C(F)(F)F)C(=O)CNc1cccc2c1CCN(C(=O)NC1CCCCC1)C2 [compound 407]
10 | NCCN(Cc1ccccc1C(F)(F)F)C(=O)CNc1cccc2c1CCN(CC1CC1)C2 [compound 442, N-(2-Amino-ethyl)-2-(2-cyclopropylmethyl-1,2,3,4-tetrahydro-isoquinolin-5-ylamino)-N-(2-trifluoromethyl-benzyl)-acetamide]
72 | NS(=O)(=O)CCN(Cc1ccccc1C(F)(F)F)C(=O)CNc1cccc2c1CCN(CC1CC1)C2 [Example 233, 2-(2-Cyclopropylmethyl-1,2,3,4-tetrahydro-isoquinolin-5-ylamino)-N-(2-sulfamoyl-ethyl)-N-(2-trifluoromethyl-benzyl)-acetamide]
87 | CC(C)CC(=O)N1CCc2c(cccc2NCC(=O)N(CCN(C)C)Cc2ccccc2)C1 [compound 119]
1 | CN(CCN(Cc1ccccc1C(F)(F)F)C(=O)CNc1cccc2c1CCN(CC1CC1)C2)C1CCC1 [Example 447, N-[2-(Cyclobutyl-methyl-amino)-ethyl]-2-(2-cyclopropylmethyl-1,2,3,4-tetrahydro-isoquinolin-5-ylamino)-N-(2-trifluoromethyl-benzyl)-acetamide]
13 | C=CCN(C)CCN(Cc1ccccc1C(F)(F)F)C(=O)CCc1cccc2c1CCN(CC=C)C2 [Example 348, N-[2-(Allyl-methyl-amino)-ethyl]-3-(2-allyl-1,2,3,4-tetrahydro-isoquinolin-5-yl)-N-(2-trifluoromethyl-benzyl)-propionamide]
248 | CN(C)CCN(Cc1ccccc1)C(=O)CNc1cccc2c1CN(C)C2 [Example 208, N-Benzyl-N-(2-dimethylamino-ethyl)-2-(2-methyl-2,3-dihydro-1H-isoindol-4-ylamino)-acetamide]
40 | CC(C)CN1CCc2c(cccc2NCC(=O)N(CCN(C)C)Cc2ccccc2)C1 [compound 112, N-Benzyl-N-(2-dimethylamino-ethyl)-2-(2-isobutyl-1,2,3,4-tetrahydro-isoquinolin-5-ylamino)-acetamide]
96 | O=C(/C=C/c1cccc2c1CCN(C(=O)[C@H]1C[C@H]1F)C2)N(CCN1CCC(F)(F)CC1)Cc1ncccc1Cl (racemic) [Example 332, rac-(E)-N-(3-Chloro-pyridin-2-ylmethyl)-N-[2-(4,4-difluoro-piperidin-1-yl)-ethyl]-3-[2-((1R*,2R*)-2-fluoro-cyclopropanecarbonyl)-1,2,3,4-tetrahydro-isoquinolin-5-yl]-acrylamide]
18 | O=C(CNc1cccc2c1CCN(CC1CC1)C2)N(CCN1CCC(F)(F)C1)Cc1ncccc1C(F)(F)F [Example 284, 2-(2-Cyclopropylmethyl-1,2,3,4-tetrahydro-isoquinolin-5-ylamino)-N-[2-(3,3-difluoro-pyrrolidin-1-yl)-ethyl]-N-(3-trifluoromethyl-pyridin-2-ylmethyl)-acetamide]
12 | CNCCN(Cc1ccccc1C(F)(F)F)C(=O)CNc1cccc2c1CCN(C(=O)C(C)C)C2 [compound 387, 2-(2-Isobutyryl-1,2,3,4-tetrahydro-isoquinolin-5-ylamino)-N-(2-methylamino-ethyl)-N-(2-trifluoromethyl-benzyl)-acetamide]
35 | C=CCOC(=O)N1CCc2c(cccc2NCC(=O)N(CCNC)Cc2ccccc2C(F)(F)F)C1 [compound 397, 5-({[(2-Methylamino-ethyl)-(2-trifluoromethyl-benzyl)-carbamoyl]-methyl}-amino)-3,4-dihydro-1H-isoquinoline-2-carboxylic acid allyl ester]
34 | CCN1CCc2cccc(NCC(=O)N(CCC3CCCN3C)Cc3ccccc3)c2C1 (racemic) [compound 508]
29 | CN(C)CCN(Cc1ccccc1C(F)(F)F)C(=O)NCc1cccc2c1CCN(CC1CC1)C2 [Example 568, 3-(2-Cyclopropylmethyl-1,2,3,4-tetrahydro-isoquinolin-5-ylmethyl)-1-(2-dimethylamino-ethyl)-1-(2-trifluoromethyl-benzyl)-urea]
150 | CC(C)(C)OC(=O)N1CCC(N(Cc2ccccc2)C(=O)CNc2cccc3c2CCN(CC2CC2)C3)C1 (racemic) [Example 65, rac-3-{Benzyl-[2-(2-cyclopropylmethyl-1,2,3,4-tetrahydro-isoquinolin-5-ylamino)-acetyl]-amino}-pyrrolidine-1-carboxylic acid tert-butyl ester]
9 | COCCN1CCc2c(cccc2NCC(=O)N(CCN(C)C)Cc2ccccc2C(F)(F)F)C1 [Example 359, N-(2-(dimethylamino)ethyl)-2-((2-(2-methoxyethyl)-1,2,3,4-tetrahydroisoquinolin-5-yl)amino)-N-(2-(trifluoromethyl)benzyl)acetamide]
208 | COCCN1CCc2c(cccc2NCC(=O)N(Cc2ccccc2C(F)(F)F)CC(C)(C)O)C1 [Example 301, N-(2-Hydroxy-2-methyl-propyl)-2-[2-(2-methoxy-ethyl)-1,2,3,4-tetrahydro-isoquinolin-5-ylamino]-N-(2-trifluoromethyl-benzyl)-acetamide]
63 | CCC(=O)N1CCc2c(cccc2NCC(=O)N(CCN(C)C)Cc2ccc(C)cc2)C1 [Example 16, N-(2-Dimethylamino-ethyl)-N-(4-methyl-benzyl)-2-(2-propionyl-1,2,3,4-tetrahydro-isoquinolin-5-ylamino)-acetamide]

Compound | EC50 [nM]
O=C(Cc1cccc2c1CCN(CC1CC1)C2)N(CCN1CCCC1)Cc1ccccc1C(F)(F)F [Example 7, 2-(2-Cyclopropylmethyl-1,2,3,4-tetrahydro-isoquinolin-5-yl)-N-(2-pyrrolidin-1-yl-ethyl)-N-(2-trifluoromethyl-benzyl)-acetamide] | 32
CCC(=O)N1CCc2cccc(OCC(=O)N(CCN(C)C)Cc3ccccc3)c2C1 [Example 206, N-Benzyl-N-(2-dimethylamino-ethyl)-2-(2-propionyl-1,2,3,4-tetrahydro-isoquinolin-8-yloxy)-acetamide] | 26
CN(C)CCN(Cc1ncccc1C(F)(F)F)C(=O)Cc1cccc2c1CCN(CC1CC1)C2 [Example 5, 2-(2-Cyclopropylmethyl-1,2,3,4-tetrahydro-isoquinolin-5-yl)-N-(2-dimethylamino-ethyl)-N-(3-trifluoromethyl-pyridin-2-ylmethyl)-acetamide] | 187
CN(C)CCN(Cc1ccccc1Cl)C(=O)COc1cccc2c1CCN(CC1CC1)C2 [compound 172, N-(2-Chloro-benzyl)-2-(2-cyclopropylmethyl-1,2,3,4-tetrahydro-isoquinolin-5-yloxy)-N-(2-dimethylamino-ethyl)-acetamide] | 2
